HELM strings list units from the 5' end as sugar, base in round brackets, then linkage (d deoxyribose, r ribose, m 2'-O-methyl, p phosphodiester). Strings are as the collection lists them; they lack the last nucleoside at the 3' end of the tested compound. [moe] = 2'-O-(2-methoxyethyl) (MOE); [sp] = phosphorothioate linkage; [m5C] = 5-methylcytosine
Target: UBE3A-ATS
Assay: mouse, dose not given
Conditions: ASO

Row | Substance | 3 h FOB score [score 0-7]
1 | RNA1{[moe]([m5C])[sp].[moe](G)p.[moe](G)p.[moe](G)p.[moe]([m5C])p.d(T)[sp].d(A)[sp].d(T)[sp].d(G)[sp].d(T)[sp].d(G)[sp].d(A)[sp].d(G)[sp].d(A)[sp].d(T)[sp].[moe](A)p.[moe](A)p.[moe](T)[sp].[moe](T)}$$$$ (last 3' nucleoside missing) | 4
2 | RNA1{[moe]([m5C])[sp].[moe](G)p.[moe](T)p.[moe](A)p.[moe](T)p.d(T)[sp].d(G)[sp].d(G)[sp].d(A)[sp].d([m5C])[sp].d([m5C])[sp].d(T)[sp].d(T)[sp].d(T)[sp].d([m5C])[sp].[moe](A)p.[moe](A)p.[moe](T)[sp].[moe](G)}$$$$ (last 3' nucleoside missing) | 3.5
3 | RNA1{[moe]([m5C])[sp].[moe](G)p.[moe](T)p.[moe](G)[sp].d(A)[sp].d(G)[sp].d([m5C])[sp].d(T)[sp].d(A)[sp].d(T)[sp].d([m5C])[sp].d(T)[sp].[moe](G)p.[moe](T)p.[moe](A)p.[moe]([m5C])[sp].[moe](A)}$$$$ (last 3' nucleoside missing) | 1
4 | RNA1{[moe]([m5C])[sp].[moe](G)p.[moe](T)p.[moe](G)p.[moe](A)[sp].d(G)[sp].d([m5C])[sp].d(T)[sp].d(A)[sp].d(T)[sp].d([m5C])[sp].d(T)[sp].d(G)[sp].[moe](T)p.[moe](A)p.[moe]([m5C])[sp].[moe](A)}$$$$ (last 3' nucleoside missing) | 1.3
5 | RNA1{[moe]([m5C])[sp].[moe](G)p.[moe](T)p.[moe](G)p.[moe](A)p.[moe](G)[sp].d([m5C])[sp].d(T)[sp].d(A)[sp].d(T)[sp].d([m5C])[sp].d(T)[sp].d(G)[sp].d(T)[sp].[moe](A)p.[moe]([m5C])[sp].[moe](A)}$$$$ (last 3' nucleoside missing) | 2
6 | RNA1{[moe]([m5C])[sp].[moe](G)p.[moe](T)p.[moe](G)p.[moe](A)p.[moe](G)p.d([m5C])[sp].d(T)[sp].d(A)[sp].d(T)[sp].d([m5C])[sp].d(T)[sp].d(G)[sp].d(T)[sp].d(A)[sp].d([m5C])[sp].[moe](A)p.[moe](A)[sp].[moe](A)}$$$$ (last 3' nucleoside missing) | 1
7 | RNA1{[moe]([m5C])[sp].[moe](G)p.[moe](T)p.[moe](G)p.[moe](A)p.d(G)[sp].d([m5C])[sp].d(T)[sp].d(A)[sp].d(T)[sp].d([m5C])[sp].d(T)[sp].d(G)[sp].d(T)[sp].d(A)[sp].[moe]([m5C])p.[moe](A)p.[moe](A)[sp].[moe](A)}$$$$ (last 3' nucleoside missing) | 3.2
8 | RNA1{[moe]([m5C])[sp].[moe](G)p.[moe](T)p.[moe](G)p.d(A)[sp].d(G)[sp].d([m5C])[sp].d(T)[sp].d(A)[sp].d(T)[sp].d([m5C])[sp].d(T)[sp].d(G)[sp].d(T)[sp].[moe](A)p.[moe]([m5C])p.[moe](A)p.[moe](A)[sp].[moe](A)}$$$$ (last 3' nucleoside missing) | 4
9 | RNA1{[moe]([m5C])[sp].[moe](G)p.[moe](T)p.[moe](T)p.[moe](A)p.d(T)[sp].d(T)[sp].d([m5C])[sp].d(A)[sp].d(G)[sp].d(T)[sp].d([m5C])[sp].d(T)[sp].d([m5C])[sp].d(A)[sp].[moe](G)p.[moe](G)p.[moe](G)[sp].[moe](A)}$$$$ (last 3' nucleoside missing) | 4.5
10 | RNA1{[moe]([m5C])[sp].[moe](G)p.[moe](T)p.[moe]([m5C])p.[moe](T)p.d(T)[sp].d([m5C])[sp].d([m5C])[sp].d([m5C])[sp].d(G)[sp].d([m5C])[sp].d(A)[sp].d([m5C])[sp].d([m5C])[sp].d(A)[sp].[moe](T)p.[moe](G)p.[moe]([m5C])[sp].[moe](A)}$$$$ (last 3' nucleoside missing) | 2
11 | RNA1{[moe]([m5C])[sp].[moe](G)p.[moe]([m5C])p.[moe](A)[sp].d(A)[sp].d(T)[sp].d(G)[sp].d(T)[sp].d(A)[sp].d(T)[sp].d([m5C])[sp].d(A)[sp].[moe](G)p.[moe](G)p.[moe]([m5C])p.[moe](A)[sp].[moe](A)}$$$$ (last 3' nucleoside missing) | 1
12 | RNA1{[moe]([m5C])[sp].[moe](G)p.[moe]([m5C])p.[moe](A)p.[moe](A)[sp].d(T)[sp].d(G)[sp].d(T)[sp].d(A)[sp].d(T)[sp].d([m5C])[sp].d(A)[sp].d(G)[sp].[moe](G)p.[moe]([m5C])p.[moe](A)[sp].[moe](A)}$$$$ (last 3' nucleoside missing) | 2
13 | RNA1{[moe]([m5C])[sp].[moe](G)p.[moe]([m5C])p.[moe](A)p.[moe](A)p.[moe](T)[sp].d(G)[sp].d(T)[sp].d(A)[sp].d(T)[sp].d([m5C])[sp].d(A)[sp].d(G)[sp].d(G)[sp].[moe]([m5C])p.[moe](A)[sp].[moe](A)}$$$$ (last 3' nucleoside missing) | 3
14 | RNA1{[moe]([m5C])[sp].[moe](G)p.[moe]([m5C])p.[moe](A)p.[moe](A)p.d(T)[sp].d(G)[sp].d(T)[sp].d(A)[sp].d(T)[sp].d([m5C])[sp].d(A)[sp].d(G)[sp].d(G)[sp].d([m5C])[sp].[moe](A)p.[moe](A)p.[moe]([m5C])[sp].[moe](A)}$$$$ (last 3' nucleoside missing) | 4
15 | RNA1{[moe]([m5C])[sp].[moe](T)p.[moe](A)p.[moe](A)p.[moe](A)p.d(A)[sp].d(T)[sp].d([m5C])[sp].d([m5C])[sp].d(A)[sp].d(T)[sp].d(T)[sp].d(T)[sp].d(G)[sp].d(T)[sp].[moe]([m5C])p.[moe]([m5C])p.[moe](A)[sp].[moe](G)}$$$$ (last 3' nucleoside missing) | 3.3
16 | RNA1{[moe]([m5C])[sp].[moe](T)p.[moe](A)p.[moe](A)p.[moe]([m5C])p.d(T)[sp].d(T)[sp].d(T)[sp].d(A)[sp].d(T)[sp].d(A)[sp].d(G)[sp].d(T)[sp].d(G)[sp].d(T)[sp].[moe](G)p.[moe](G)p.[moe](A)[sp].[moe](T)}$$$$ (last 3' nucleoside missing) | 5
17 | RNA1{[moe]([m5C])[sp].[moe](T)p.[moe](A)p.[moe](G)p.[moe](G)p.d([m5C])[sp].d(A)[sp].d(G)[sp].d([m5C])[sp].d(T)[sp].d([m5C])[sp].d(T)[sp].d(T)[sp].d(T)[sp].d(G)[sp].[moe](T)p.[moe](A)p.[moe](G)[sp].[moe](G)}$$$$ (last 3' nucleoside missing) | 0.3
18 | RNA1{[moe]([m5C])[sp].[moe](T)p.[moe](A)p.[moe](T)p.[moe]([m5C])p.d(A)[sp].d(A)[sp].d(G)[sp].d(G)[sp].d([m5C])[sp].d(T)[sp].d(G)[sp].d(T)[sp].d(T)[sp].d(A)[sp].[moe](T)p.[moe](T)p.[moe](G)[sp].[moe](G)}$$$$ (last 3' nucleoside missing) | 4
19 | RNA1{[moe]([m5C])[sp].[moe](T)p.[moe](A)p.[moe](T)p.[moe]([m5C])p.d(T)[sp].d(G)[sp].d(T)[sp].d(A)[sp].d([m5C])[sp].d(A)[sp].d(A)[sp].d(A)[sp].d(A)[sp].d(T)[sp].[moe](G)p.[moe](G)p.[moe](A)[sp].[moe](A)}$$$$ (last 3' nucleoside missing) | 0
20 | RNA1{[moe]([m5C])[sp].[moe](T)p.[moe](G)p.[moe](A)p.[moe](G)p.d(T)[sp].d([m5C])[sp].d(A)[sp].d(G)[sp].d(T)[sp].d([m5C])[sp].d([m5C])[sp].d(A)[sp].d(A)[sp].d(A)[sp].[moe](T)p.[moe](G)p.[moe](A)[sp].[moe](A)}$$$$ (last 3' nucleoside missing) | 0.5
21 | RNA1{[moe]([m5C])[sp].[moe](T)p.[moe](G)p.[moe](A)p.[moe](T)p.[moe]([m5C])p.d(A)[sp].d([m5C])[sp].d(A)[sp].d(T)[sp].d(T)[sp].d(A)[sp].d([m5C])[sp].d([m5C])[sp].d([m5C])[sp].d(A)[sp].[moe](T)p.[moe]([m5C])[sp].[moe]([m5C])}$$$$ (last 3' nucleoside missing) | 0
22 | RNA1{[moe]([m5C])[sp].[moe](T)p.[moe](G)p.[moe](A)p.[moe](T)p.d([m5C])[sp].d(A)[sp].d([m5C])[sp].d(A)[sp].d(T)[sp].d(T)[sp].d(A)[sp].d([m5C])[sp].d([m5C])[sp].d([m5C])[sp].[moe](A)p.[moe](T)p.[moe]([m5C])[sp].[moe]([m5C])}$$$$ (last 3' nucleoside missing) | 1
23 | RNA1{[moe]([m5C])[sp].[moe](T)p.[moe](G)p.[moe](A)p.d(T)[sp].d([m5C])[sp].d(A)[sp].d([m5C])[sp].d(A)[sp].d(T)[sp].d(T)[sp].d(A)[sp].d([m5C])[sp].d([m5C])[sp].[moe]([m5C])p.[moe](A)p.[moe](T)p.[moe]([m5C])[sp].[moe]([m5C])}$$$$ (last 3' nucleoside missing) | 0
24 | RNA1{[moe]([m5C])[sp].[moe](T)p.[moe](G)p.[moe](G)p.[moe](T)p.d(A)[sp].d(G)[sp].d(G)[sp].d(A)[sp].d(T)[sp].d([m5C])[sp].d(T)[sp].d(A)[sp].d(T)[sp].d(G)[sp].[moe](G)p.[moe]([m5C])p.[moe](A)[sp].[moe](G)}$$$$ (last 3' nucleoside missing) | 2.3
25 | RNA1{[moe]([m5C])[sp].[moe](T)p.[moe](G)p.[moe](T)p.[moe](A)p.d(A)[sp].d(G)[sp].d(G)[sp].d(T)[sp].d(G)[sp].d(A)[sp].d(T)[sp].d(A)[sp].d(T)[sp].d([m5C])[sp].[moe](T)p.[moe](A)p.[moe](T)[sp].[moe](A)}$$$$ (last 3' nucleoside missing) | 3
26 | RNA1{[moe]([m5C])[sp].[moe](T)p.[moe](G)p.[moe](T)p.[moe](A)p.d(A)[sp].d(G)[sp].d(T)[sp].d(A)[sp].d(T)[sp].d(A)[sp].d(G)[sp].d(A)[sp].d(T)[sp].d(G)[sp].[moe]([m5C])p.[moe]([m5C])p.[moe](T)[sp].[moe]([m5C])}$$$$ (last 3' nucleoside missing) | 3.2

— the OligoGym collection
